Reference: patent US7659426B2, “Target protein of anticancer agent and novel anticancer agent (spnal) corresponding thereto” (Reverse Proteomics Research Institute Co., Ltd., priority 2003, dated 2010)
“Also recorded” adds a separate entry of the source.

Key:
[1] = biological target: T1, KSRP (MARTA1, a rat protein having a high homology to KSRP) (Rattus norvegicus, UniProt Q99PF5); test: Binding experiments: compound-immobilized resins with rat brain lysate, SDS gel (FIG. 1); conditions: 4° C.
T1 construct: from tissue; host or cells: rat brain
T1 sequence (Q99PF5 1-721): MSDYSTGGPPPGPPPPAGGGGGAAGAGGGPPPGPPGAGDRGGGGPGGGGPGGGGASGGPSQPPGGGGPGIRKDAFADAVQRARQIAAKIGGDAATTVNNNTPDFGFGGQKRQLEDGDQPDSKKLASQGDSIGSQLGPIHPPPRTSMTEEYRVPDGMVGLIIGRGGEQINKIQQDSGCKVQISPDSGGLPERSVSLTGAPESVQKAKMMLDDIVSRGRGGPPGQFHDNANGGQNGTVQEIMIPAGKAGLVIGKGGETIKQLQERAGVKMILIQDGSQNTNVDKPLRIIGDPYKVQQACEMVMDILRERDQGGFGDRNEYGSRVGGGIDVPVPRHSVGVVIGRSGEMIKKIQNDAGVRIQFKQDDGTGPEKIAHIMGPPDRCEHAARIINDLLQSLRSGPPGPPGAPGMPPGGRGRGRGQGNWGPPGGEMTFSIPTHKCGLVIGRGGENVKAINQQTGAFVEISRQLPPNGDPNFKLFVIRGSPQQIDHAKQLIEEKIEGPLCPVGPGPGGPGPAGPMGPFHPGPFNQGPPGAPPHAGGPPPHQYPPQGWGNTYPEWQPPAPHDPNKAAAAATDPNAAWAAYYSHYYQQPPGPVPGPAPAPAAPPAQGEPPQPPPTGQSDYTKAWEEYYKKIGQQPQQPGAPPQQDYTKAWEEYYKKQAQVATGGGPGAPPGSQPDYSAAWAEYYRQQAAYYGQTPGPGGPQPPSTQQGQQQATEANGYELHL
Method: The rat brain (2.4 g) was mixed in a mixture A (25 mM Tris-HCl pH 8.0, 0.5% Tween 20, 300 μM DCC (24 ml; N,N-diethyldithiocarbamate sodium)) and prepared as a homogenate, which was then centrifuged at 9,000 rpm for 10 minutes. The centrifugal supernatant was collected and further centrifuged at 50,000 rpm for 30 minutes. The supernatant thus obtained was used as the lysate.
Each resin (10 μl) and lysate (1 ml) were gently shaken at 4° C. for about 1 hour. Thereafter, centrifugal operation was performed, and each supernatant was collected carefully. Then, each supernatant was again mixed with a fresh compound-bound resin (10 μl). At this time, the separated compound-bound resin was kept to stand at 4° C. as the resin from the first binding experiment. After the mixture was gently stirred for about 3 hours, centrifugal operation was performed, and the supernatant was removed. Subsequently, the compound-bound resin obtained in the second binding experiment and the resin obtained in the first binding experiment were gently washed with mixture A about five times to remove substances other than the protein bound onto the resin to the maximum possible extent. […]

COX2 = biological target: T2, COX2 (Homo sapiens, UniProt P35354); conditions: Cancer Research, 57, pp. 2909-2915 (1997); cited from earlier work
T2 sequence (P35354 18-604): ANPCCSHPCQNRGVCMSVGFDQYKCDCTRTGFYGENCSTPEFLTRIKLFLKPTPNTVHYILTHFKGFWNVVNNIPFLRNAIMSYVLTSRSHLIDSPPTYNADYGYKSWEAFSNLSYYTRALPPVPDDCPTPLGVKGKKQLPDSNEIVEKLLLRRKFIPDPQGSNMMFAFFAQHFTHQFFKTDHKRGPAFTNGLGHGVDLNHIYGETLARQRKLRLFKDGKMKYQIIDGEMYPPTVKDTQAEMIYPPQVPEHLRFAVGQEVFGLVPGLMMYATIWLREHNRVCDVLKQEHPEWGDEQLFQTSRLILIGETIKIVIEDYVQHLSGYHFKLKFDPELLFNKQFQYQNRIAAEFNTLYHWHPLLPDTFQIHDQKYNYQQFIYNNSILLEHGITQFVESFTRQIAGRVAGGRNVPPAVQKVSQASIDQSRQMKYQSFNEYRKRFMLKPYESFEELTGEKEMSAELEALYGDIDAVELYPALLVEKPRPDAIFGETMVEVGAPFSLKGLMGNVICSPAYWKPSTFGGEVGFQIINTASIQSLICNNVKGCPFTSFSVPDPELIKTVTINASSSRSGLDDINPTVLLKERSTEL

COX1 = COX1 (Homo sapiens, UniProt P23219); set-up: key to COX1 inhibitory effect: x: weak effect; ∘: definite inhibitory effect; conditions: cited from earlier work; for inhibitory effect on COX1: Cancer Research, 57, pp. 2909-2915 (1997)
COX1, sequence (P23219 24-599): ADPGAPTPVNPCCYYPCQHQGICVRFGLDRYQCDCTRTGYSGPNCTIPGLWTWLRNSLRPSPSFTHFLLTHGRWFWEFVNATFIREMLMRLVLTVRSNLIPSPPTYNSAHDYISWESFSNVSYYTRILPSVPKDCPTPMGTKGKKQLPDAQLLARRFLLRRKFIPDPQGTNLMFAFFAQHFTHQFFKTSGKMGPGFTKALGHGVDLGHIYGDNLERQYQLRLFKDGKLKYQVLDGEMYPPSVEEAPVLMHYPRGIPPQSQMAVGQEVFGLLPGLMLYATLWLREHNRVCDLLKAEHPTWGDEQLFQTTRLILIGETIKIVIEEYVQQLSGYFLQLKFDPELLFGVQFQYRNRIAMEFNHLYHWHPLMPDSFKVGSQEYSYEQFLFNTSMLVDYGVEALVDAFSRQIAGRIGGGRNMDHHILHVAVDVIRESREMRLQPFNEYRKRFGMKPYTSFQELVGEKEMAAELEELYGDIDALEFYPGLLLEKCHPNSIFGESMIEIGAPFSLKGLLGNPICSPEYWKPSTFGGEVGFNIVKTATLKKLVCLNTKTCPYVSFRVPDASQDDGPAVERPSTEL

Row | Structure (SMILES) | binding of KSRP (MARTA1) to the compound-immobilized resin [1] | inhibitory effect on COX2 (COX2) | inhibitory effect on COX1 (COX1) | COX1 inhibitory effect (COX1)
1 | CSc1ccc(/C=C2/C(C)=C(CC(=O)O)c3cc(F)ccc32)cc1 [Sulindac sulfide] | other than the resin immobilized with sulindac sulfide; also recorded: other than the resin wherein sulindac sulfide was immobilized | – | – | –
2 | CC1=C(CC(=O)O)c2cc(F)ccc2/C1=C\c1ccc(S(C)(=O)=O)cc1 [Sulindac sulfone] | – | only weak inhibitory effect | only weak inhibitory effect | x
3 | CC1=C(CC(=O)O)c2cc(F)ccc2/C1=C\c1ccc([S+](C)[O-])cc1 (centres unmarked) [Sulindac] | – | only weak inhibitory effect | only weak inhibitory effect | x
4 | CC(=O)O[C@H]1C(=O)[C@@]2(C)[C@H]([C@H](OC(=O)c3ccccc3)[C@]3(O)C[C@H](OC(=O)[C@H](O)[C@@H](NC(=O)c4ccccc4)c4ccccc4)C(C)=C1C3(C)C)[C@]1(OC(C)=O)CO[C@@H]1C[C@@H]2O [Taxol] | binds to KSRP | – | – | –
